From BindingDB's records for patent US12435089 (Tyk Medicines, 2025)

Tests used:
Assay in all cases: Inhibitory Activity of the Compounds of the Invention Against ROS1, NTRK and ALK and their Drug-Resistant Kinases
[1] = target: Proto-oncogene tyrosine-protein kinase ROS (Homo sapiens, UniProt P08922)
Experimental: (§1) Inhibition of protein kinase activity by compounds was carried out on the Radio-tagged HotSpot kinase experimental platform of Reaction Biology Corporation. Fresh reaction solution (20 mM HEPESpH 7.5, 10 mM MgCl2, 1 mM EGTA, 0.02% Brij35, 0.02 mg/ml BSA, 0.1 mM Na3VO4, 2 mM DTT, 1% DMSO) containing corresponding substrates was prepared, cofactor and kinase to be tested were added into the above solution and mixed gently. Echo550 pipetting system was used to add the test compound DMSO solution to each well (the blank control group was added with the corresponding volume of DMSO), then 33P-ATP (with a final specific activity of 0.01 μCi/μL) was added to start the reaction. The reaction solution was incubated at room temperature for 120 minutes.

[2] = target: NT-3 growth factor receptor (Homo sapiens, UniProt Q16288)
Experimental: as §1

[3] = target: High affinity nerve growth factor receptor (Homo sapiens, UniProt P04629)
Experimental: as §1

Measured: IC50

NT-3 growth factor receptor, sequence (Q16288 whole entry): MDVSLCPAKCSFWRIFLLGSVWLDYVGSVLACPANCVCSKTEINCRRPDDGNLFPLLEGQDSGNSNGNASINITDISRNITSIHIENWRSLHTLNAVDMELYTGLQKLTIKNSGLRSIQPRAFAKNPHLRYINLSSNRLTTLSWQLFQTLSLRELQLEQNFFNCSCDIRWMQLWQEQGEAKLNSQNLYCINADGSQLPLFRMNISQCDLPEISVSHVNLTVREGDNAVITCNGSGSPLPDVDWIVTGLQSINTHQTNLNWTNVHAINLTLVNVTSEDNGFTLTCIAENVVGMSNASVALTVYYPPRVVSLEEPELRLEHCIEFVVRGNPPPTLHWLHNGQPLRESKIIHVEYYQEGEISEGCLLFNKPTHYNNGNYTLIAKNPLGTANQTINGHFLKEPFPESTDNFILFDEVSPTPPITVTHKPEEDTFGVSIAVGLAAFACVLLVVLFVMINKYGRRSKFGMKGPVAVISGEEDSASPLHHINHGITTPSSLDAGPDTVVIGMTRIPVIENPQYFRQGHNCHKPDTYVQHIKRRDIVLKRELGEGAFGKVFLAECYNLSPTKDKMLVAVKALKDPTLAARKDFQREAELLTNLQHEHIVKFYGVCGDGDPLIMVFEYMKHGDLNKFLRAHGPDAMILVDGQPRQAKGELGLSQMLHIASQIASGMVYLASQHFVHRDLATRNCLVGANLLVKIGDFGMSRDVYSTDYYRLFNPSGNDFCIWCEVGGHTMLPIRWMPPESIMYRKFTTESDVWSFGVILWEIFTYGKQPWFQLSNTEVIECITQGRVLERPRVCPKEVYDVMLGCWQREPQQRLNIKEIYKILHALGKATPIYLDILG
High affinity nerve growth factor receptor, sequence (P04629 whole entry): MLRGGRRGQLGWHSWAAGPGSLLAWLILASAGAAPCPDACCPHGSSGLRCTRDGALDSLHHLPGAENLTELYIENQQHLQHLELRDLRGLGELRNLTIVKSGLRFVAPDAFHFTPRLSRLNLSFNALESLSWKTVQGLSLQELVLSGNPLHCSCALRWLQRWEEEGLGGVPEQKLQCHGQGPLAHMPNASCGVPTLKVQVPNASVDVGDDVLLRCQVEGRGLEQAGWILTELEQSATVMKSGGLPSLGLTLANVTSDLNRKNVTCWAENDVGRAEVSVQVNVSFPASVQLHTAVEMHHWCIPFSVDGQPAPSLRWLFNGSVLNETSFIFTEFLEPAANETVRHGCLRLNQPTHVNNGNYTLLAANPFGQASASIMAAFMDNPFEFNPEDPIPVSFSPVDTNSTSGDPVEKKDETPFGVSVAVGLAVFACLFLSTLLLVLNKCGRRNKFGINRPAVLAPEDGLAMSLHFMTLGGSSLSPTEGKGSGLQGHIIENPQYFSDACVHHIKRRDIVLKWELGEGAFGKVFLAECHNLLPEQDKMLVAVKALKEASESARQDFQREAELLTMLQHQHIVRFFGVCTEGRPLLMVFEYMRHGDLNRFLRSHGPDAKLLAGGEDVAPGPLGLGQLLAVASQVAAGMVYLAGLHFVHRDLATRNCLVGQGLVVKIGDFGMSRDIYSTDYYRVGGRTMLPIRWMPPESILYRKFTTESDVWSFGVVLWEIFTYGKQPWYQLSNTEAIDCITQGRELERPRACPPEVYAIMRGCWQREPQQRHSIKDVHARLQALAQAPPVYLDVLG
Proto-oncogene tyrosine-protein kinase ROS, sequence (P08922 whole entry): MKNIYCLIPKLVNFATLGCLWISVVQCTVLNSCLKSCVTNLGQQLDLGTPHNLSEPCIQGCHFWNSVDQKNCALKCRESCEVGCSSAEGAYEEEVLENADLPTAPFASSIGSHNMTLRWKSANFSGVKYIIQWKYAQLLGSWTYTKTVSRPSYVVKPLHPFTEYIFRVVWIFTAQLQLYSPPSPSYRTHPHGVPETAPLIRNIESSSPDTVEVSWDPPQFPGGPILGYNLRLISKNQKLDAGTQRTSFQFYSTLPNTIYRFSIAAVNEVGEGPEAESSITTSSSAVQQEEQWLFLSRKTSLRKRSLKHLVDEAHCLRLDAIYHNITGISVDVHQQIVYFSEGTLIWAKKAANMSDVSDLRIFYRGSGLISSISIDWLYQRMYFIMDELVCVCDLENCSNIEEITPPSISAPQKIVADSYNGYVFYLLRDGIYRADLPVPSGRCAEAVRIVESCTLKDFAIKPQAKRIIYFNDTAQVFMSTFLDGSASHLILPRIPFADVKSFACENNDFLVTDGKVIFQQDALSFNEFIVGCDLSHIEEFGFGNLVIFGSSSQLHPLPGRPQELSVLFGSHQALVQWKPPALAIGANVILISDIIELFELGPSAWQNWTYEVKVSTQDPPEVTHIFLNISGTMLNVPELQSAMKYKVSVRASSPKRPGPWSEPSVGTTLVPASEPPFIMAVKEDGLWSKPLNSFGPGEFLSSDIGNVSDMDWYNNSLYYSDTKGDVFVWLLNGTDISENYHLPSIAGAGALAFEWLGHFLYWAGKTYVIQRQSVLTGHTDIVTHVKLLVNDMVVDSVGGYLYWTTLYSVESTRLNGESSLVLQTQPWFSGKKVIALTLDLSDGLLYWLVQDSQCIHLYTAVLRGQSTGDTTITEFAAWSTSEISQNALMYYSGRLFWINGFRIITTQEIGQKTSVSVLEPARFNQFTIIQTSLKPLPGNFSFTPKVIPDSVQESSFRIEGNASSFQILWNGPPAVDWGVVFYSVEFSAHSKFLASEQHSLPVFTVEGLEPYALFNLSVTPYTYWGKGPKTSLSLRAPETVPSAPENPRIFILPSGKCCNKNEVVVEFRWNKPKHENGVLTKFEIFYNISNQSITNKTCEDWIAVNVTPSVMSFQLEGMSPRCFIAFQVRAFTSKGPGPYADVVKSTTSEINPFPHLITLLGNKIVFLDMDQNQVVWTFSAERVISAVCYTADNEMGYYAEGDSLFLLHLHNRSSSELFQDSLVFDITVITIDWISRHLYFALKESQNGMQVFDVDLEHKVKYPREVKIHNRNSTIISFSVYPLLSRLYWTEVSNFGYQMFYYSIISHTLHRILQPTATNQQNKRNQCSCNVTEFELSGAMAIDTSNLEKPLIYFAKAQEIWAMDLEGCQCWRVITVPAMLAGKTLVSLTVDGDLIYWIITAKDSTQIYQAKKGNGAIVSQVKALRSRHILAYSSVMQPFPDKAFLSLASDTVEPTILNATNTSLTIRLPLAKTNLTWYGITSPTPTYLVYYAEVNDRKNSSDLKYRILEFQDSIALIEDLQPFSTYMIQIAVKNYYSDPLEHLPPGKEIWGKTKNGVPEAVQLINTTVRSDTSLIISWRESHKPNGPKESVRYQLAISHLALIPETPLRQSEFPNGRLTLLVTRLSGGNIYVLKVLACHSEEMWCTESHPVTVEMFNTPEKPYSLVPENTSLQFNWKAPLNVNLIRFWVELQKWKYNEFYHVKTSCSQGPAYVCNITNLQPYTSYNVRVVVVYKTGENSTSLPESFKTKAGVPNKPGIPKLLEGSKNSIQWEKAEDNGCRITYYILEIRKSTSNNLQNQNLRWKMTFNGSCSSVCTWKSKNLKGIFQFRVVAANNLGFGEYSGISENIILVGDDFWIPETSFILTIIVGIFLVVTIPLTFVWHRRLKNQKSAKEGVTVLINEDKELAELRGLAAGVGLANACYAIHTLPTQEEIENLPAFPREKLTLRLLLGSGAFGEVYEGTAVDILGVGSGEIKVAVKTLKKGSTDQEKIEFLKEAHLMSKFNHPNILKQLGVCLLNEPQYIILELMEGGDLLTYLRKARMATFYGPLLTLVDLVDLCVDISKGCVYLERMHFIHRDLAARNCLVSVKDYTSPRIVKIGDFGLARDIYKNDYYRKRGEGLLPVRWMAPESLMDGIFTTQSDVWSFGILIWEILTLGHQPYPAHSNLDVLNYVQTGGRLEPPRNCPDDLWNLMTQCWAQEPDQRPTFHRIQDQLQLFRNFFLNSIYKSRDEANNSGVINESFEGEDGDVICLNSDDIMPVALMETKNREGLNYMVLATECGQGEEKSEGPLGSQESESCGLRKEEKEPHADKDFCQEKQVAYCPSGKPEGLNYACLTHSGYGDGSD

C[C@@H](Oc1ccn2ncc(C3=NOC(C)(C)N3)c2n1)c1c(Cl)ccc(F)c1Cl [US12435089, Example 9]
< 0.5 nM: all assays above
